In the supplement of paper PMC10307832:

What was measured:
Assay in all cases: relative viability (nuclei count vs DMSO), 5 days (fraction); higher = more cells survive
[1] = compound: C1CCC(CC1)N(CCNCCC2=C3C(=C(C=C2)O)NC(=O)CO3)C(=O)CCNCCC4=CC(=C(C=C4)Cl)Cl [AZ505] + Nc1nc2[nH]cc(CCc3ccc(C(=O)N[C@@H](CCC(=O)O)C(=O)O)cc3)c2c(=O)[nH]1 [Pemetrexed] (partner 0.2 µM)
How it was run: (§1)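 Relative viability equals treated-well nuclei counts divided by vehicle-well nuclei counts. Counts came from 4× images of lung cancer cell lines grown in 1536-well plates for 5 days after pin-tool dosing on the day after seeding. Dosing used one drug alone or a fixed anchor-drug dose plus five library-drug doses (not always all listed) in √10 steps, and values are medians of duplicate plates.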

[2] = compound: Cn1c(=O)n(-c2ccc(C(C)(C)C#N)cc2)c2c3cc(-c4cnc5ccccc5c4)ccc3ncc21 [Dactolisib] + O=C(c1cc(Cc2n[nH]c(=O)c3ccccc23)ccc1F)N1CCN(C(=O)C2CC2)CC1 [Olaparib] (partner 8 µM)
How it was run: as §1

[3] = compound: Cn1c(=O)n(-c2ccc(C(C)(C)C#N)cc2)c2c3cc(-c4cnc5ccccc5c4)ccc3ncc21 [Dactolisib] + COc1cccc2cc(-c3nc([C@H]4CC[C@H](C(=O)O)CC4)n4ncnc(N)c34)[nH]c12 [OSI-027] (partner 0.5 µM)
How it was run: as §1

[4] = compound: Cn1c(=O)n(-c2ccc(C(C)(C)C#N)cc2)c2c3cc(-c4cnc5ccccc5c4)ccc3ncc21 [Dactolisib] + Nc1ncn([C@H]2C[C@H](O)[C@@H](CO)O2)c(=O)n1 [Decitabine] (partner 2 µM)
How it was run: as §1

Cell Line | relative viability ([1]; first compound 0.253 µM) | relative viability ([1]; first compound 0.8 µM) | relative viability ([1]; first compound 2.53 µM) | relative viability ([1]; first compound 8 µM) | relative viability ([2]; first compound 0.002 µM) | relative viability ([2]; first compound 0.006325 µM) | relative viability ([2]; first compound 0.02 µM) | relative viability ([2]; first compound 0.06325 µM) | relative viability ([2]; first compound 0.2 µM) | relative viability ([3]; first compound 0.002 µM) | relative viability ([3]; first compound 0.006325 µM) | relative viability ([3]; first compound 0.02 µM) | relative viability ([3]; first compound 0.06325 µM) | relative viability ([3]; first compound 0.2 µM) | relative viability ([4]; first compound 0.002 µM) | relative viability ([4]; first compound 0.006325 µM) | relative viability ([4]; first compound 0.02 µM) | relative viability ([4]; first compound 0.06325 µM) | relative viability ([4]; first compound 0.2 µM) | relative viability ([1]; first compound 0.08 µM)
EKVX | 0.385 | 0.384 | 0.41 | 0.403 | 0.661 | 0.867 | 0.861 | 0.469 | 0.331 | 0.678 | 0.655 | 0.697 | 0.536 | 0.389 | 0.343 | 0.313 | 0.284 | 0.272 | 0.22 | –
NCI-H2087 | 0.614 | 0.691 | 0.741 | 0.696 | 0.719 | 0.474 | 0.631 | 0.197 | 0.243 | 1.05 | 0.572 | 0.53 | 0.43 | 0.252 | 0.314 | 0.265 | 0.249 | 0.205 | 0.133 | 0.616
LK-2 | 0.254 | 0.294 | 0.283 | 0.313 | 0.61 | 0.836 | 0.491 | 0.328 | 0.17 | 0.176 | 0.205 | 0.213 | 0.207 | 0.159 | 0.347 | 0.305 | 0.335 | 0.159 | 0.142 | 0.215
NCI-H1437 | 0.314 | 0.29 | 0.336 | 0.322 | 0.686 | 0.6 | 0.629 | 0.64 | 0.543 | 0.849 | 0.903 | 0.883 | 0.834 | 0.586 | 0.716 | 0.551 | 0.676 | 0.569 | 0.482 | 0.334
COR-L23 | 0.204 | 0.201 | 0.185 | 0.186 | 0.345 | 0.351 | 0.312 | 0.182 | 0.141 | 0.917 | 0.796 | 0.59 | 0.289 | 0.259 | 0.605 | 0.445 | 0.32 | 0.23 | 0.182 | 0.185
ABC-1 | – | – | – | – | 0.911 | 0.862 | 0.952 | 1.1 | 0.613 | 0.494 | 0.519 | 0.569 | 0.43 | 0.349 | 1.22 | 1.02 | 1.13 | 0.999 | 0.827 | –
NCI-H522 | 1.04 | 1.03 | 1.22 | 0.808 | 0.691 | 0.664 | 0.68 | 0.464 | 0.446 | 0.719 | 0.728 | 0.881 | 0.671 | 0.539 | 0.797 | 0.723 | 0.751 | 0.62 | 0.533 | 1
